For one assay, the target named is T1, RARα (Homo sapiens, UniProt P10276).
T1 construct: made in house; host or cells: baculovirus expression system
T1 sequence (P10276 1-462): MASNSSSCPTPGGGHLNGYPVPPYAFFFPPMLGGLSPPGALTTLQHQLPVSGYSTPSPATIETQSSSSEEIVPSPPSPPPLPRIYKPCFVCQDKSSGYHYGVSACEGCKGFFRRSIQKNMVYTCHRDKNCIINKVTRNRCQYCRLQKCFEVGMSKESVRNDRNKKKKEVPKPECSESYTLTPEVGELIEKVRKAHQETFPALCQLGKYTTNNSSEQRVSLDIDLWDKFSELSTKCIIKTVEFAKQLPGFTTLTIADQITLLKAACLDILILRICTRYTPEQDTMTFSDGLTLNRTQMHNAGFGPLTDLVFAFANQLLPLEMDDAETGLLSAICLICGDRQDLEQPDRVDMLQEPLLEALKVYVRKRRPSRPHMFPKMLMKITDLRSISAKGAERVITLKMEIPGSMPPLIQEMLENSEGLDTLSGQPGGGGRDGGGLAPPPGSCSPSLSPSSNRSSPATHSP
T1 sequence (P19793 1-462 partner): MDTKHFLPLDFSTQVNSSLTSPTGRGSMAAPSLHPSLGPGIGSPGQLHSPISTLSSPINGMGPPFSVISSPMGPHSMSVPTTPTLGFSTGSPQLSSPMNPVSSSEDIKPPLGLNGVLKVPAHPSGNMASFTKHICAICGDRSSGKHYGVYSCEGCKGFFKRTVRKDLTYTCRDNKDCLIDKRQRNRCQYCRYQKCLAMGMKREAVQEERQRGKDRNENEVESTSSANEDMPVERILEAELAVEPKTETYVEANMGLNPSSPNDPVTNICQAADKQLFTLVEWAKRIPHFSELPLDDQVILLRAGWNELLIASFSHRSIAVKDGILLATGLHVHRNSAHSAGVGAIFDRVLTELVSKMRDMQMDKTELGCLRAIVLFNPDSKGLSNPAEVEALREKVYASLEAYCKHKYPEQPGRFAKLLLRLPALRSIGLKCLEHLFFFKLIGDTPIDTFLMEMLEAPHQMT
The assay is described as follows: RARα binding assay (SPA, 3H-TTNPB competition). The following applies: RARα/RXRα heterodimer. The source says:
(§1) Compounds can be evaluated for binding to RARα, β and γ by measuring their ability to competitively bind to the RAR receptors when dimerized with the binding partner RXRα. Competitive binding assays may be carried out by Scintillation Proximity Assay (SPA) technology using the RARα, β or γ heterodimer (with RXRα as a partner with all the RARs) receptors prepared in a baculovirus expression system. Use the biotinylated oligonucleotide: 5′-[…]-3′ for binding of receptor to yttrium silicate streptavidin-coated SPA beads. Per well, preincubate […] with 82.7 μg SPA beads in a binding buffer containing 10 mM HEPES pH 7.8, 80 mM KCl, 0.5 mM MgCl2, 1 mM DTT, 0.5% CHAPS and 16.6 μg bovine serum albumin for 30 min at room temperature. Then spin the mixture at 2,000 rpm for 3 min to pelletize the beads-oligo mix. Remove the supernatant and resuspend the beads-oligo pellet in the same binding buffer as above, but which in addition now also contain 14% glycerol, 5 μg of sheared salmon sperm DNA, 0.5 μg of RARα, 1.0 μg of RARβ, or 0.25 μg of RARγ receptor, respectively. Carry out the binding assays in the presence of ˜11.3 μCi of ^3H 4-[(E)-2-(5,6,7,8-tetrahydro-5,5,8,8-tetramethyl-2-naphthalenyl)-1-propenyl]benzoic acid (TTNPB), and multiple concentrations of test compound ranging from (5 nM to 10 μM). Non-specific binding may be determined in the presence of 1 μM unlabeled TTNPB. Use the data to calculate an IC50 for compounds after fitting the dose-response curves to a 4-parameter logistic fit. Use the Cheng-Prusoff equation to convert IC50 (nM) values for compounds to Ki, and the Kd may be determined by saturation binding.

The next assay deals with T2, RARβ (Homo sapiens, UniProt P10826).
T2 construct: made in house; host or cells: baculovirus expression system
T2 sequence (P10826 1-455): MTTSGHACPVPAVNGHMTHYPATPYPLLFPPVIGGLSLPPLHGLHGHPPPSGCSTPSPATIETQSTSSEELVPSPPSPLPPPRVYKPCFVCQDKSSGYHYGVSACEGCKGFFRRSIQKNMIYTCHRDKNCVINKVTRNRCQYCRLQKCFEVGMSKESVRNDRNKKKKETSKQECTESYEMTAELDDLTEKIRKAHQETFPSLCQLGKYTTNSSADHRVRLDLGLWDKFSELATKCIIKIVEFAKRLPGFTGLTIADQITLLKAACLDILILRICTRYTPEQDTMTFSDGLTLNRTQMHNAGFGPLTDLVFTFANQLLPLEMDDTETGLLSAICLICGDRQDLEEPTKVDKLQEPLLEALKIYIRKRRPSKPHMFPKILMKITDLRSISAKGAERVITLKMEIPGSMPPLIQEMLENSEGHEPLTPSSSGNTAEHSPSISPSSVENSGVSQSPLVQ
T2 sequence (P19793 1-462 partner): T1 sequence (P19793 1-462 partner)
Description: RARβ binding assay (SPA, 3H-TTNPB competition). The settings on record: RARβ/RXRα heterodimer.
Description: as §1

Some results are limits rather than exact numbers.

The Ki is a dissociation constant, usually derived from enzyme kinetics or from competition with a known ligand. In the case of `CC(C)Sc1cc(-c2cc(-c3ccc(C(=O)O)cc3)nn2-c2ccc(C(=O)N(C)C)cc2)cc(C(C)(C)C)c1` [Example 12, 4-[5-(3-tert-Butyl-5-isopropylsulfanyl-phenyl)-1-[4-(dimethylcarbamoyl)phenyl]pyrazol-3-yl]benzoic Acid], the Ki was found to be 386 nM on RARα and 609 nM at RARβ.
For `CC(C)(C)c1cc(-c2cc(-c3ccc(C(=O)O)cc3)nn2-c2ccc(C(=O)N3CCOCC3)cc2)cc(C(C)(C)C)n1` [Example 8, 4-[5-(2,6-Di-tert-butyl-4-pyridyl)-1-[4-(morpholine-4-carbonyl)phenyl]pyrazol-3-yl]benzoic acid] the same measures were 357 nM and 1400 nM.
For `CC(C)(C)c1cc(-c2cc(-c3ccc(C(=O)O)cc3)nn2-c2ccc(S(C)(=O)=O)cc2)cc(C(C)(C)C)c1` [Example 19, 4-[5-(3,5-Di-tert-butylphenyl)-1-(4-methylsulfonylphenyl)pyrazol-3-yl]benzoic Acid] the same measures were 285 nM and 828 nM.
For `CN1CCN(C(=O)c2ccc(-n3nc(-c4ccc(C(=O)O)cc4)cc3-c3cc(C(C)(C)C)cc(C(C)(C)C)c3)cc2)CC1` [Example 1, 4-[5-(3,5-Di-tert-butylphenyl)-1-[4-(4-methylpiperazine-1-carbonyl)phenyl]pyrazol-3-yl]benzoic Acid] the same measures were above 970 nM and above 1820 nM.

(Values after US20140275049A1, “SUBSTITUTED PYRAZOLE ANALOGS As RAR ANTAGONISTS” (Eli Lilly and Company, priority 2011, published 2014).)
